“And” between values parts separate entries of the source, which are not always exact repeats. Equal entries are not always repeated.
What was measured:
Assay type in all cases: in vivo
[1] = system: Fall Armyworm (Spodoptera frugiperda, LAPHFR, FAW); experiment: Bioassay 7: fall armyworm, artificial diet, 96 well plate
Description: (§1) The test solutions were tested against CEW, FAW, BAW, and SBL using the following procedure: an artificial lepidopteran diet (Multispecies Lepidopteran Diet, Southland Products) was distributed in 96 well plate. Twenty μL of test solution was pipetted onto a cell in the bioassay plate. […] Each treatment was replicated 5 times for each species. Approximately five first instar CEW, FAW, BAW, or SBL larva were placed on top of the diet in each cell and was contained with a clear perforated adhesive lid. Test trays were held at approximately 25° C. and ambient relative humidity prior to grading. After five days, the number of cells where all the larvae were dead were recorded as 100% and averaged across all replicates; then the percent control was measured using Abbott's correction formula (W. S. Abbott, J. Econ. Entomol. 18 (1925), pp. 265-267) as follows:
(§2) where X=No. of live larvae on solvent check and Y=No. of live larvae on treated diet. In Table 7 the “Expected % Control” was calculated using the method described in Colby S. R., Weeds, 1967, 15, 20-22. Bioassay 8: Western Corn Rootworm (Diabrotica virgifera virgifera, DIABVI, “WCR”)

[2] = system: Soybean Looper (Chrysodeixis includens, PSEPIN, SBL); experiment: Bioassay 7: soybean looper, artificial diet, 96 well plate; conditions: CL; F1 alone at 0.000005 wt %
Description: as §1, §2

[3] = system: Western Corn Rootworm (Diabrotica virgifera virgifera, DIABVI, WCR); experiment: Bioassay 8: western corn rootworm, soil drench, corn root protection; conditions: F1 alone, DIABVI (CRW), 10 mL soil drench, corn nodal root length after 13 days
Description: Corn seeds were planted in steam pasteurized soil filled greenhouse pots. Western corn rootworm Diabrotica virgifera virgifera eggs supplied from the Corteva Agriscience in Johnston, IA US, were suspended in a 0.08% agar solution added into the soil. Stock solutions of F1 and active ingredients were prepared at a concentration of either 250 or 500 ugai/10 mL for F1 and active ingredients at the ratios of (F1:AI) 1:0.004; 1:0.01; 1:0.02; 1:0.04; 1:0.08; 1:0.1; 1:0.15; 1:0.2; 1:0.4; 1:2; or 1:4, using a 1:1 solution of acetone:water as a diluent. A soil application of solutions were applied as a 10 mL drench over the soil. Plants were grown in the greenhouse for 13 days at 25 C after which the roots were removed from the soil, washed, and measured to determine the length of the median nodal roots. The measured lengths were compared to the infested and un-infested untreated checks to determine the mean percent control offered to protect the corn roots.

Cc1ccc(COCC(F)(F)F)c(N2C(=O)CS/C2=N\C(=O)Nc2ccc(-c3ncn(-c4ccc(OC(F)(F)F)cc4)n3)cc2F)c1 [F1]
Average % Control F1 ([1]; F1 alone at 0.0000025 wt %): 0.0% | Average % Control F1 ([1]; F1 alone at 0.000005 wt %): 62.5% | Average % Control F1 [2]: 80.0% | Average % Control F1 ([3]; UgActive F1 250): 97.8% and 88.8% | Average % Control F1 ([3]; UgActive F1 500): 83.9%
